Measured values: US20090182011A1, “Chimeric Nitrate Esters and Use of the Same in a Treatment for Depression” (UNIVERSITY OF ILLINOIS CHICAGO, priority 2008, published 2009)

Columns and labels:
male Sprague Dawley rats = test: Modified forced swimming test; format: in vivo, rat; conditions: 26.5 mg/kg i.p. 23.5, 5 and 1 hour before the test
Experimental: Modified forced swimming test This test was performed using male Sprague Dawley rats weighing 200-250 g. Rats were trained to swim in the water tank for 15 minutes 24 hour before the test. NO-Fluoxetine was administered by i.p. injections 23.5, 5, and 1 hour before the test at a dose of 26.5 mg/kg, which is equimolar to 20 mg/kg fluoxetine. NO-fluoxetine was freshly prepared in an emulsion formed of 5% Tween 80. The test was performed by putting the rats in a water tank consisting of an acrylic cylinder (22 cm diameter, 30 cm water depth, 25° C. water temperature) for 5 minutes. The 5 minute test was divided into 60 blocks of 5 seconds each. The major behavior in each 5 sec block was assigned for the whole block, including climbing, swimming, and immobile. The blocks representing different behaviors were counted.
In vivo NO-fluoxetine (26.5 mg/kg equimolar to 20 mg/kg fluoxetine) given by i.p. injections 23.5, 5, and 1 hour before the test was active in the modified forced swimming test, showing an increase in the swimming behaviour and a decrease in the immobility behaviour. Sub-acute injection of NO-fluoxetine provides sufficient time for the bioactivation of NO-fluoxetine and the subsequent release of fluoxetine.
Values presented as mean±SEM, n=6 per group. The data were statistically evaluated by ANOVA, followed by Turkey post-hoc test.

[1] = NO-fluoxetine bioactivation in rat plasma; format: in vitro ADME; conditions: 0.25 mM substrate, 30 min, 37° C.
Experimental: In plasma A solution containing substrate (0.25 mM) and rat plasma (0.1 mL) was incubated for 30 min at 37° C. The reaction was quenched by addition of acetonitrile and centrifugation for 10 min. The solution was filtered and injected to HPLC.

[2] = NOx detection (NO analyzer, Griess assay); conditions: incubated with GSH
Experimental: NOx detection A degassed solution containing NO-fluoxetine (0.5 mM), and cysteine (5 mM) or GSH (5 mM) in 50 mM phosphate buffer (pH 7.4, 1 mL total volume) was incubated for 30 min at 37° C. After 30 min, nitric oxide was detected using an NO analyzer, and nitrite and nitrate was detected using Griess assay.

[3] = NO-fluoxetine bioactivation in rat liver microsomes; format: in vitro ADME; conditions: 0.25 mM substrate, NADPH, 30 min, 37° C.
Experimental: In rat liver microsomes A solution containing substrate (0.25 mM), rat liver microsomes (3 nmol of P450/0.5 mL), and NADPH (2 mM) in 50 mM phosphate buffer (pH 7.4, 0.5 mL total volume) was incubated for 30 min at 37° C. The reaction was quenched by addition of acetonitrile and centrifugation for 10 min. The solution was filtered and injected to HPLC.

male C57BL/6 mice = test: Step-through passive avoidance (STPA) task, scopolamine induced memory impairment; conditions: for effect on 48 h retention (scopolamine induced long term memory impairment): 4.5 umole/kg i.p. 20 minutes before training (NO-fluoxetine 2.05 mg/kg, fluoxetine 1.54 mg/kg), scopolamine 1 mg/kg
Experimental: Step-through passive avoidance (STPA) task This test was performed on male C57BL/6 mice (from Charles River's Laboratories), 8-10 weeks of age and weighing 22-27 g. The mice were kept under standardized laboratory conditions (temperature 21±1° C., humidity 50-60%) with free access to food and tap water in a room with a natural light-dark cycle.
Avoidance experiment was divided into 3 phases: habituation, training, and retention. The apparatus used consisted of a box divided into 2 compartments, an illuminated compartment adjacent to a dark compartment, the floor consisted of an electric grid controlled by a switch that can deliver an electric shock only to the dark compartment. A doorway was located at floor level in the center of the connecting wall; the door was closed once the mouse enters the dark compartment. The habituation phase was performed by individually putting the mice in the light compartment; the door was closed once the mouse enters the dark compartment (without an electric shock), left there for 15 seconds before being returned to its cage. The time (latency) to enter the dark box was recorded for each mouse; only mice scoring less than 30 seconds for three consecutive times were allowed to pass for the training phase. Training phase was performed 2 hours after the habituation phase by individually placing the mice again in the illuminated compartment but an electric shock (0.6 mA for 2 s) was delivered immediately after the mouse entered the dark compartment accompanied by the door closure. Trial was repeated for a maximum of 5 trials or until the mouse remained in the light compartment for 300 seconds in one of the trials. During the training phase, the number of trials and the time (latency) to enter the dark compartment was scored. Mice that entered the dark compartment in the fifth trial in less than 300 seconds were eliminated from the experiment. Forty-eight hours after the training trial, a retention test was conducted in which the same animals were put into the illuminated box and again the latency to enter the dark box was recorded. The retention trial ended when the mouse entered the dark box or 300 s had elapsed, whichever occurred first. Scopolamine (1 mg/kg) dissolved in physiological saline water was administered by i.p. injection 30 minutes before the training phase and drugs dissolved in 25% DMSO were administered by i.p. injection 20 minutes before the training.
The data were statistically evaluated by one way ANOVA, followed by Tukey post-hoc test.

[4] = NO-fluoxetine bioactivation in phosphate buffer; format: physicochemical; conditions: 50 mM phosphate buffer solutions pH 7.0, 7.4 and 8.0
Experimental: In Phosphate buffer saline A stock solution of NO-fluoxetine was prepared by dissolving 1 mg of the compound in 100 μL MeOH (21 mM). An aliquot (10 μL) of the stock solution was added to 990 μL of 50 mM phosphate buffer (pH 7.4) at 22° C., and the formation of fluoxetine was monitored by reverse phase HPLC using 4.6 mm×150 mm C18 column at a flow rate of 1.0 mL/min. The mobile phase contained 60% acetonitrile content, which was increased to 90% over 5 min. After the phase was held 90% for 5 min, the acetonitrile was reduced to 60% in 5 min. Formation of fluoxetine in buffers was positively identified by comparing retention time and the LC-MS (electrospary ionization) protonated [M+H]+ molecular ion (m/z 310) of the authentic sample. Fluoxetine formation was monitored every 15 min and percentage of fluoxetine formation was obtained with respect to time. Kinetic experiments were performed in 50 mM phosphate buffer solutions (pH 7.0, pH 7.4, and pH 8.0).
Formation of fluoxetine in buffer was positively identified by comparison to the retention time and the LC-MS (electrospary ionization) protonated [M+H]+ molecular ion (m/z 310) of an authentic fluoxetine sample.
Kinetic studies for the degradation of NO-fluoxetine were performed by monitoring the production of fluoxetine every 15 min in different pH buffer solutions (See FIG. 1).

Structure (SMILES)	activity in the modified forced swimming test (male Sprague Dawley rats)	immobility behaviour (male Sprague Dawley rats)	swimming behaviour (male Sprague Dawley rats)	product of reaction with plasma [1]	nitric oxide release [2]	product of reaction with rat liver microsomes [3]	effect on 48 h retention (scopolamine induced long term memory impairment) (male C57BL/6 mice)	conversion in buffer [4]	animals that failed to learn the STPA task during the training phase (male C57BL/6 mice; 4.5 umole/kg i.p. 20 minutes before training)
CN(CCC(Oc1ccc(C(F)(F)F)cc1)c1ccccc1)C(=O)SCCO[N+](=O)[O-] (stereo not shown) [NO-fluoxetine]	active	decrease	increase	generated fluoxetine as the major product	released nitric oxide	generated fluoxetine as the major product	reversed the scopolamine induced long term memory impairment	converted to fluoxetine	
CNCCC(Oc1ccc(C(F)(F)F)cc1)c1ccccc1 (stereo not shown) [fluoxetine]							did not have an effect		5 of 12 and zero
